Experimental data taken from patent publication US7842702B2, “Treatment for irritable bowel syndrome” (Astellas Pharma Inc., priority 2007, dated 2010).
In brackets after ≈: the same amount, converted by molar mass.

Legend:
[1] = test system: restraint stress-induced defecation in the acetic acid-induced IBS model; assay: Restraint stress-induced defecation in the acetic acid-induced IBS model; format: in vivo, rat; details: for ED50: Rattus norvegicus, male SD rats, 4% acetic acid IBS model, 30 min before restraint, stools for 1 hour; for ED50 / inhibitory effects on restraint stress-induced defecation (dose dependence): compound 1 po, cromolyn ip; for inhibitory effects on restraint stress-induced defecation (dose dependence): FIGS. 2 and 3
Procedure: (§1) Preparation of an IBS model was carried out by the following method with reference to the method of Jun-Ho La et al. (World J. Gastroenterol., 2003, vol. 9 (12), pp. 2791-2795). Male Sprague-Dawley (SD) rats or Wistar rats after an overnight fast were used. Colitis was induced by intracolonic instillation of 1 ml 4% acetic acid at 8 cm proximal to the anus for 30 seconds under light ether anesthesia. Then, 1 ml physiological saline was instilled to dilute the acetic acid and flush the colon twice. Rats were recovered from colitis for 6 days, and used for experiments shown in Examples 2 and 3 at 7 days after induction of colitis as “IBS rat (4% acetic acid)”. In addition, rats received physiological saline instead of acetic acid was used as a “control group (saline)”.
Cromolyn was used by dissolving it in physiological saline, and compound 1 and ketotifen were used by dissolving them in 0.5% methylcellulose aqueous solution, respectively. Each compound was intraperitoneally administered (cromolyn) or orally administered (compound 1 and ketotifen) to male SD rats under no fasting at 7 days after the 4% acetic acid treatment or physiological saline treatment. The animals were put into restraint stress cages (product name: KN-468 (B), mfd. by Natsume Seisakusho) 30 minutes thereafter and the number and weight of the stools excreted for 1 hour were measured (“stress”). On the other hand, the normal group was put into individual cage and the number and weight of the stools excreted for 1 hour were measured in the same manner (“normal”). Results of the restraint stress-induced defecation in the agent-nonadministered group are shown in FIG. 1, and the results of agent-administered groups in FIGS. 2 to 4 respectively.

rat abdominal mast cells = assay: Release of histamine by an antigen-antibody reaction using rat abdominal mast cells (degranulation); format: cell-based; details: Mast cell, fluorescent method with o-phthalaldehyde, read-out: Degranulation (mast cells) (IC50 μg/ml)
Procedure: In addition, the inhibitory effects of compound 1 and cromolyn on the release of histamine by an antigen-antibody reaction using rat abdominal mast cells were measured by a fluorescent method which is a modified method of Shore et al. (The Journal of Pharmacology and Experimental Therapeutics, 1959, vol. 127, pp. 182-186) with o-phthalaldehyde.

[2] = test system: abdominal contractions caused by colorectal distention in the acetic acid-induced IBS model; assay: Viscerosensory response to colorectal distention (number of abdominal contractions) in the acetic acid-induced IBS model; format: in vivo, rat; details: for inhibitory effects on abdominal contractions, concomitant use with alosetron: alosetron 0.1 mg/kg, po + compound 1 0.01 mg/kg, po or cromolyn 20 mg/kg, ip, FIG. 8
Procedure: as §1
Male Wistar rats under no fasting at 7 days after 4% acetic acid treatment or physiological saline treatment were used. Under light ether anesthesia, a latex balloon of 6 cm in length was inserted intra-anally until the end of the balloon was 2 cm inside the rectum. The catheter connecting from the balloon was fixed to the tail base with a tape and connected to a pressure transducer via a three-way cock. After restoration from the ether anesthesia in a cage (23.5×19×19 cm), nociceptive behavior (the number of abdominal contractions) to colorectal distention (15, 30, 45, 60 mmHg) applied stepwise at 5 minute intervals was measured. […] In this connection, each compound was administered 30 minutes before the colorectal distention.

[3] = test system: spontaneous defecation in mice; details: mouse, in vivo
Procedure: Doxantrazole was used by dissolving it in 5% (w/v) NaHCO3 aqueous solution, and compound 1 was used by dissolving it in 0.5% methylcellulose aqueous solutions Male ddY mice under no fasting were reared in individual cages from the evening of the previous day of the experiment. On the day of the experiment, each compound was administered intraperitoneally (doxantrazole) or orally (compound 1), and the number of stools spontaneously excreted for 2 hours after the initiation of the experiment was measured.

IBS patients = details: cited from earlier work

Row | SMILES | IC50 (rat abdominal mast cells) | effect on the spontaneous defecation in mice [3] | ED50 [1] | inhibitory effects on restraint stress-induced defecation (dose dependence) [1] | inhibitory effects on abdominal contractions, concomitant use with alosetron [2] | further results
1 | O=C(Nc1nnn[nH]1)c1cc(Oc2ccccc2)c2ccccn2c1=O [Compound 1, N-(1H-tetrazol-5-yl)-1-phenoxy-4H-quinolizin-4-one-3-carboxamide] | 0.0074 µg/mL (≈ 0.0212 µM) | no effect | 0.0071 mg/kg | in a dose-dependent manner | additively | inhibition of restraint stress-induced defecation at 1 mg/kg, po ([1]; 1 mg/kg, po): inhibited it almost completely; inhibitory effects on abdominal contractions, concomitant use with ramosetron ([2]; compound 1 0.01 mg/kg, po + ramosetron 0.01 mg/kg, po, FIG. 7): additively; inhibitory effects on the abdominal contractions caused by the colorectal distention ([2]; male Wistar rats, 0.01 and 1 mg/kg, po, 30 min before distention, FIG. 6): dose-dependent inhibitory effects
2 | Cc1[nH]cnc1CN1CCc2c(c3ccccc3n2C)C1=O [alosetron] |  |  |  |  |  | inhibitory effects on abdominal contractions, alosetron alone ([2]; 0.1 mg/kg, po): maximal inhibitory effects; improvement rate for abdominal symptoms and diarrhea (IBS patients): about 50%
3 | CN1CCC(=C2c3ccccc3CC(=O)c3sccc32)CC1 [ketotifen] |  |  |  |  |  | inhibitory effects on restraint stress-induced defecation at the maximum ([1]; po, maximum effect, FIG. 4): about 30%
4 | Cn1cc(C(=O)[C@@H]2CCc3nc[nH]c3C2)c2ccccc21 [ramosetron] |  |  |  |  |  | inhibitory effects on abdominal contractions, ramosetron alone ([2]; 0.01 mg/kg, po): maximal inhibitory effects

More lines, main results first:

Row | IC50 (rat abdominal mast cells) | effect on the spontaneous defecation in mice [3] | SMILES | ED50 [1] | inhibitory effects on restraint stress-induced defecation (dose dependence) [1] | inhibitory effects on abdominal contractions, concomitant use with alosetron [2] | further results
5 | 2.2 µg/mL |  | O=C(O)c1cc(=O)c2c(OCC(O)COc3cccc4oc(C(=O)O)cc(=O)c34)cccc2o1 [Cromolyn, sodium cromoglycate] | 19.9 mg/kg | in a dose-dependent manner | reinforcement of the effect was not found | inhibition of restraint stress-induced defecation at 100 mg/kg, ip ([1]; 100 mg/kg, ip): inhibited it almost completely
6 |  | inhibitory tendency | O=C1c2ccccc2S(=O)(=O)c2cc(-c3nnn[nH]3)ccc21 [doxantrazole] |  |  |  | 
